Results as given in US10294202B2, “Pyrrolidinones as herbicides” (FMC Corporation, priority 2013, dated 2019).

Legend:
soybean = assay: Test C pre-/postemergence herbicide test; type: in vivo, Glycine max
Outline: (§1)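 Test compounds, formulated in a surfactant-containing non-phytotoxic solvent blend, are applied to seeded loam/sand soil (preemergence) and to young plants at the 1- to 4-leaf stage in peat-based medium (postemergence). Plants stay 13 to 15 days under greenhouse conditions, then are scored visually relative to controls, 0 = no effect, 100 = complete control.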

crabgrass, large = assay: Test C pre-/postemergence herbicide test; type: in vivo, Digitaria sanguinalis
Outline: as §1

barnyardgrass = assay: Test A pre-/postemergence herbicide test; type: in vivo, Echinochloa crus-galli
Outline: (§2)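 Planted in loam–sand blend; treated the same day preemergence by directed soil spray, while separately grown plants at one- to two-leaf stage got postemergence spray. Compared visually with untreated controls after approximately 10 days; 100 means complete control.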

johnsongrass = assay: Test C pre-/postemergence herbicide test; type: in vivo, Sorghum halepense
Outline: as §1

corn = assay: Test C pre-/postemergence herbicide test; type: in vivo, Zea mays
Outline: as §1

pigweed = assay: Test C pre-/postemergence herbicide test; type: in vivo, Amaranthus retroflexus
Outline: as §1

ducksalad = assay: Test B flooded paddy test; type: in vivo, Heteranthera limosa; conditions: 1000 g ai/ha, Flood; scale of 0 to 100 where 0 is no effect and 100 is complete control
Outline: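 2-leaf plants; flood 3 cm over soil; compound into paddy water; depth held. Greenhouse 13–15 d. Visual rating vs controls, 0 (no effect) to 100 (complete control); dash = not tested.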

nutsedge, yellow = assay: Test C pre-/postemergence herbicide test; type: in vivo, Cyperus esculentus
Outline: as §1

lambsquarters = assay: Test C pre-/postemergence herbicide test; type: in vivo, Chenopodium album
Outline: as §1

ryegrass, Italian = assay: Test C pre-/postemergence herbicide test; type: in vivo, Lolium multiflorum
Outline: as §1

giant foxtail = assay: Test A pre-/postemergence herbicide test; type: in vivo, Setaria faberii
Outline: as §2

[1] = Postemergence, 31 g ai/ha, scale 0 (no effect) to 100 (complete control)
[2] = Postemergence, 62 g ai/ha, scale 0 to 100 (0 no effect, 100 complete control)
[3] = Postemergence, 125 g ai/ha, scale 0 to 100 (0 no effect, 100 complete control)
[4] = Postemergence, 250 g ai/ha, scale 0 to 100 (0 no effect, 100 complete control)
[5] = Postemergence, 1000 g ai/ha, 0 to 100 scale (0 no effect, 100 complete control)
[6] = Preemergence, 31 g ai/ha, scale 0 to 100, 0 is no effect and 100 is complete control
[7] = Preemergence, 62 g ai/ha, scale 0 to 100
[8] = Preemergence, 125 g ai/ha, scale 0 to 100 (0 no effect, 100 complete control)
[9] = Postemergence, 125 g ai/ha, 0 to 100 scale, 0 no effect, 100 complete control
[10] = Postemergence, 500 g ai/ha, 0 to 100 scale (0 no effect, 100 complete control)
[11] = Preemergence, 125 g ai/ha, visual rating on 0 to 100 scale (0 no effect, 100 complete control)

Cc1c(F)cccc1NC(=O)C1C(=O)NCC1c1ccc(F)c(F)c1 (racemic) [Compound 106]
Plant response rating, Soybean (soybean; [1]): 0 | Plant response rating, Soybean (soybean; [2]): 0 | Plant response rating, Soybean (soybean; [3]): 5 | Plant response rating, Soybean (soybean; [4]): 5 | Plant response rating, Crabgrass, Large (crabgrass, large; [1]): 10 | Plant response rating, Crabgrass, Large (crabgrass, large; [2]): 10 | Plant response rating, Crabgrass, Large (crabgrass, large; [3]): 25 | Plant response rating, Crabgrass, Large (crabgrass, large; [4]): 60 | Plant response rating, Barnyardgrass (barnyardgrass; [5]): 90 | Plant response rating, Barnyardgrass (barnyardgrass; preemergence, 1000 g ai/ha, 0 to 100 scale (0 no effect, 100 complete control)): 90 | Plant response rating, Johnsongrass (johnsongrass; [1]): 0 | Plant response rating, Johnsongrass (johnsongrass; [2]): 0 | Plant response rating, Johnsongrass (johnsongrass; [3]): 0 | Plant response rating, Johnsongrass (johnsongrass; [4]): 0 | Plant response rating, Corn (corn; [1]): 0 | Plant response rating, Corn (corn; [2]): 0 | Plant response rating, Corn (corn; [3]): 0 | Plant response rating, Corn (corn; [4]): 0 | Plant response rating, Pigweed (pigweed; [1]): 0 | Plant response rating, Pigweed (pigweed; [2]): 0 | Plant response rating, Pigweed (pigweed; [3]): 5 | Plant response rating, Pigweed (pigweed; [4]): 30 | Plant response rating, Ducksalad (ducksalad): 90 | Plant response rating, Nutsedge, Yellow (nutsedge, yellow; [1]): 0 | Plant response rating, Nutsedge, Yellow (nutsedge, yellow; [2]): 0 | Plant response rating, Nutsedge, Yellow (nutsedge, yellow; [3]): 0 | Plant response rating, Nutsedge, Yellow (nutsedge, yellow; [4]): 0 | Plant response rating, Lambsquarters (lambsquarters; [1]): 0 | Plant response rating, Lambsquarters (lambsquarters; [2]): 25 | Plant response rating, Lambsquarters (lambsquarters; [3]): 0 | Plant response rating, Lambsquarters (lambsquarters; [4]): 0 | Plant response rating, Ryegrass, Italian (ryegrass, Italian; [1]): 0 | Plant response rating, Ryegrass, Italian (ryegrass, Italian; [2]): 0 | Plant response rating, Ryegrass, Italian (ryegrass, Italian; [3]): 0 | Plant response rating, Ryegrass, Italian (ryegrass, Italian; [4]): 5 | Plant response rating, Foxtail, Giant (giant foxtail; [5]): 90 | Plant response rating, Foxtail, Giant (giant foxtail; preemergence, 1000 g ai/ha, 0 to 100 scale): 90

Cc1ccccc1NC(=O)C1C(=O)NCC1c1cccc(C(F)(F)F)c1 (racemic) [Compound 109]
Plant response rating, Soybean (soybean; [1]): 0 | Plant response rating, Soybean (soybean; [2]): 0 | Plant response rating, Soybean (soybean; [3]): 5 | Plant response rating, Soybean (soybean; [4]): 5 | Soybean plant response rating (soybean; [6]): 100 | Plant response rating, Soybean (soybean; [7]): 0 | Plant response rating, Soybean (soybean; [8]): 55 | Plant response rating (scale of 0 to 100), Soybean (soybean; Preemergence, 250 g ai/ha): 0 | Plant response rating, Crabgrass, Large (crabgrass, large; [1]): 10 | Plant response rating, Crabgrass, Large (crabgrass, large; [2]): 10 | Plant response rating, Crabgrass, Large (crabgrass, large; [3]): 40 | Plant response rating, Crabgrass, Large (crabgrass, large; [4]): 70 | Crabgrass, Large plant response rating (crabgrass, large; [6]): 98 | Plant response rating, Crabgrass, Large (crabgrass, large; [7]): 100 | Plant response rating, Crabgrass, Large (crabgrass, large; [8]): 100 | Plant response rating (scale of 0 to 100), Crabgrass, Large (crabgrass, large; Preemergence, 250 g ai/ha): 100 | Plant response rating, Barnyardgrass (barnyardgrass; [9]): 90 | Plant response rating, Barnyardgrass (barnyardgrass; [10]): 90 | Barnyardgrass plant response rating (barnyardgrass; [11]): 80 | Plant response rating, Barnyardgrass (barnyardgrass; preemergence, 500 g ai/ha, 0 to 100 scale (0 no effect, 100 complete control)): 90 | Plant response rating, Johnsongrass (johnsongrass; [1]): 0 | Plant response rating, Johnsongrass (johnsongrass; [2]): 0 | Plant response rating, Johnsongrass (johnsongrass; [3]): 0 | Plant response rating, Johnsongrass (johnsongrass; [4]): 0 | Johnsongrass plant response rating (johnsongrass; [6]): 0 | Plant response rating, Johnsongrass (johnsongrass; [7]): 10 | Plant response rating, Johnsongrass (johnsongrass; [8]): 40 | Plant response rating (scale of 0 to 100), Johnsongrass (johnsongrass; Preemergence, 250 g ai/ha): 70 | Plant response rating, Corn (corn; [1]): 0 | Plant response rating, Corn (corn; [2]): 0 | Plant response rating, Corn (corn; [3]): 0 | Plant response rating, Corn (corn; [4]): 5 | Corn plant response rating (corn; [6]): 0 | Plant response rating, Corn (corn; [7]): 5 | Plant response rating, Corn (corn; [8]): 60 | Plant response rating (scale of 0 to 100), Corn (corn; Preemergence, 250 g ai/ha): 75 | Plant response rating, Pigweed (pigweed; [1]): 5 | Plant response rating, Pigweed (pigweed; [2]): 5 | Plant response rating, Pigweed (pigweed; [3]): 5 | Plant response rating, Pigweed (pigweed; [4]): 10 | Pigweed plant response rating (pigweed; [6]): 30 | Plant response rating, Pigweed (pigweed; [7]): 0 | Plant response rating, Pigweed (pigweed; [8]): 0 | Plant response rating (scale of 0 to 100), Pigweed (pigweed; Preemergence, 250 g ai/ha): 20 | Plant response rating, Ducksalad (ducksalad): 95 | Plant response rating, Nutsedge, Yellow (nutsedge, yellow; [1]): 0 | Plant response rating, Nutsedge, Yellow (nutsedge, yellow; [2]): 0 | Plant response rating, Nutsedge, Yellow (nutsedge, yellow; [3]): 0 | Plant response rating, Nutsedge, Yellow (nutsedge, yellow; [4]): 0 | Nutsedge, Yellow plant response rating (nutsedge, yellow; [6]): 0 | Plant response rating, Nutsedge, Yellow (nutsedge, yellow; [7]): 5 | Plant response rating, Nutsedge, Yellow (nutsedge, yellow; [8]): 0 | Plant response rating (scale of 0 to 100), Nutsedge, Yellow (nutsedge, yellow; Preemergence, 250 g ai/ha): 5 | Plant response rating, Lambsquarters (lambsquarters; [1]): 0 | Plant response rating, Lambsquarters (lambsquarters; [2]): 0 | Plant response rating, Lambsquarters (lambsquarters; [3]): 0 | Plant response rating, Lambsquarters (lambsquarters; [4]): 5 | Lambsquarters plant response rating (lambsquarters; [6]): 0 | Plant response rating, Lambsquarters (lambsquarters; [7]): 0 | Plant response rating, Lambsquarters (lambsquarters; [8]): 5 | Plant response rating (scale of 0 to 100), Lambsquarters (lambsquarters; Preemergence, 250 g ai/ha): 0 | Plant response rating, Ryegrass, Italian (ryegrass, Italian; [1]): 0 | Plant response rating, Ryegrass, Italian (ryegrass, Italian; [2]): 0 | Plant response rating, Ryegrass, Italian (ryegrass, Italian; [3]): 0 | Plant response rating, Ryegrass, Italian (ryegrass, Italian; [4]): 0 | Ryegrass, Italian plant response rating (ryegrass, Italian; [6]): 0 | Plant response rating, Ryegrass, Italian (ryegrass, Italian; [7]): 40 | Plant response rating, Ryegrass, Italian (ryegrass, Italian; [8]): 20 | Plant response rating (scale of 0 to 100), Ryegrass, Italian (ryegrass, Italian; Preemergence, 250 g ai/ha): 70 | Plant response rating, Foxtail, Giant (giant foxtail; [9]): 90 | Plant response rating, Foxtail, Giant (giant foxtail; [10]): 90 | Foxtail, Giant plant response rating (giant foxtail; [11]): 90 | Plant response rating, Foxtail, Giant (giant foxtail; preemergence, 500 g ai/ha, 0 to 100 scale): 90
